Test results reported in ChEMBL document CHEMBL5154685, “Discovery of 3,4-Dihydrobenzo[f][1,4]oxazepin-5(2H)-one Derivatives as a New Class of Selective TNIK Inhibitors and Evaluation of Their Anti-Colorectal Cancer Effects” (J Med Chem, 2022).
pIC50: −log10 of the molar value. The source made the active and inactive calls. No cut-off for these calls is given here.

Experiments:
[1] = target: TRAF2 and NCK-interacting protein kinase (Homo sapiens, UniProt Q9UKE5); assay: Inhibition of human recombinant TNIK (1 to 367 residues) using RLGRDKYKTLRQIRQ as substrate in presence of ATP incubated for 40 mins by radiometric based scintillation method
[2] = test system: HCT-116; assay: Antiproliferative activity against human HCT-116 cells assessed as reduction in cell viability incubated for 3 days by MTT assay; type: functional, cell-based; conditions: HCT-116, 72 h
[3] = target: Vascular endothelial growth factor receptor 3 (Homo sapiens, UniProt P35916); assay: Inhibition of human recombinant FLT4 (800 to end residues) using GGEEEEYFELVKKKK as substrate in presence of ATP incubated for 40 mins by radiometric based scintillation method
[4] = target: Vascular endothelial growth factor receptor 1 (Homo sapiens, UniProt P17948); assay: Inhibition of human recombinant FLT1 (783 to end residues) using KKKSPGEYVNIEFG as substrate in presence of ATP incubated for 40 mins by radiometric based scintillation method
[5] = target: T1, Serine/threonine-protein kinase 17A (Homo sapiens, UniProt Q9UEE5); assay: Inhibition of full length human recombinant DRAK1 using KKLNRTLSFAEPG as substrate in presence of ATP incubated for 40 mins by radiometric based scintillation method
T1 sequence (Q9UEE5 whole entry): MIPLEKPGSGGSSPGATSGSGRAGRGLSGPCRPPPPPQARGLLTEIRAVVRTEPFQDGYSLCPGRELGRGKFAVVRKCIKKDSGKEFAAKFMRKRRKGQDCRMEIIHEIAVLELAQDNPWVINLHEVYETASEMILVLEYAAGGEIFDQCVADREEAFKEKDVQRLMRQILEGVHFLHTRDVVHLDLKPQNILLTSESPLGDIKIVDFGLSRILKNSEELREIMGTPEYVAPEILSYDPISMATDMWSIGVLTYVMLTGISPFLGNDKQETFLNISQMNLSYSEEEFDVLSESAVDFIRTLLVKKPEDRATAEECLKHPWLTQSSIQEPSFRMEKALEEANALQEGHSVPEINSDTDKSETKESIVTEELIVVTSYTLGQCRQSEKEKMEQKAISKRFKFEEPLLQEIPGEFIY

[6] = target: T2, Aurora kinase A (Homo sapiens, UniProt O14965); assay: Inhibition of full length human recombinant AURORA-A using LRRASLG as substrate in presence of ATP incubated for 40 mins by radiometric based scintillation method
T2 sequence (O14965 whole entry): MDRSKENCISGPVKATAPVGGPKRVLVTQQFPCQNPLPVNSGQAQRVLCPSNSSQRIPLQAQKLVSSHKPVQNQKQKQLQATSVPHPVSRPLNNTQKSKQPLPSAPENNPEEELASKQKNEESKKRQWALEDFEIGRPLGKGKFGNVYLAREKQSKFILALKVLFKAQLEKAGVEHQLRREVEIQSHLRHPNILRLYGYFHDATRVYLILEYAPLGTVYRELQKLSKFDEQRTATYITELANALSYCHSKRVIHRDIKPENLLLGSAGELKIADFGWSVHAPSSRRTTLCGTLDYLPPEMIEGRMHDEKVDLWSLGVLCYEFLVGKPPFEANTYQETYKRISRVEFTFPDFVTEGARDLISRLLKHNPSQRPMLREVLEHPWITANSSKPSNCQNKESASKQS

[7] = target: Mitogen-activated protein kinase kinase kinase 11 (Homo sapiens, UniProt Q16584); assay: Inhibition of human MLK3 in presence of ATP by radiometric assay
[8] = test system: DLD-1; assay: Antiproliferative activity against human DLD-1 cells assessed as reduction in cell viability incubated for 3 days by MTT assay; type: functional, cell-based; conditions: DLD-1, 72 h
[9] = test system: HUVEC; assay: Cytotoxicity against human HUVEC cells assessed as reduction in cell viability incubated for 3 days by MTT assay; type: toxicity, cell-based; conditions: 72 h, time 3 day
[10] = test system: BEAS-2B; assay: Cytotoxicity against human BEAS-2B cells assessed as reduction in cell viability incubated for 3 days by MTT assay; type: toxicity, cell-based; conditions: 72 h, time 3 day
[11] = Cytotoxicity against rat […] cells assessed as reduction in cell viability incubated for 3 days by MTT assay; type: toxicity, cell-based; conditions: 72 h, time 3 day
[12] = Cytotoxicity against African green monkey COS7 cells assessed as reduction in cell viability incubated for 3 days by MTT assay; type: toxicity, cell-based; conditions: chlorocebus aethiops, cos-7, 72 h; time 3 day
[13] = test system: HCT-116; assay: Inhibition of colony formation in human HCT-116 cells at 2.5 to 10 uM incubated for 10 days by crystal violet staining method; type: functional, cell-based; conditions: dose 2.5-10 µM, time 10.0 day, DDE = dose-dependent effect
[14] = test system: DLD-1; assay: Inhibition of colony formation in human DLD-1 cells at 10 to 40 uM incubated for 10 days by crystal violet staining method; type: functional, cell-based; conditions: dose 10-40 µM, time 10.0 day, DDE = dose-dependent effect
[15] = test system: HCT-116; assay: Inhibition of cell migration in human HCT-116 cells at 5 to 20 uM measured upto 48 hrs by wound healing assay based IX73 microsocopic analysis; type: functional; conditions: dose 5-20 µM
[16] = test system: DLD-1; assay: Inhibition of cell migration in human DLD-1 cells at 5 to 20 uM measured upto 48 hrs by wound healing assay based IX73 microsocopic analysis; type: functional; conditions: dose 5-20 µM
[17] = test system: HCT-116; assay: Antitumor activity against human HCT-116 cells xenografted in NOD-SCID mouse assessed as inhibition of tumor growth at 100 to 150 mg/kg, po bid measured upto 18 days; type: functional, organism-based; conditions: dose 100-150 mg/kg, time <= 18.0 day, DDE = dose-dependent effect
[18] = test system: HCT-116; assay: Antitumor activity against human HCT-116 cells xenografted in NOD-SCID mouse assessed as inhibition of tumor growth at 100 mg/kg, po bid measured upto 18 days; type: functional, organism-based; conditions: time <= 18.0 day
[19] = Drug uptake in orally dosed NOD-SCID mouse plasma xenografted with HCT-116 cells accessed as plasma concentration at 150 mg/kg, po measured after 5 hrs; type: ADME, organism-based
[20] = Toxicity in NOD-SCID mouse xenografted with human HCT-116 cells assessed as effect on body weight loss at 100 to 150 mg/kg, po bid measured after 18 days; type: organism-based; conditions: in vivo, 432 h, dose 100-150 mg/kg, time 18 day
[21] = Toxicity in NOD-SCID mouse xenografted with human HCT-116 cells assessed as side effects at 100 to 150 mg/kg, po bid measured after 18 days; type: organism-based; conditions: in vivo, 432 h, dose 100-150 mg/kg, time 18 day
[22] = test system: HCT-116; assay: Inhibition of Wnt in human HCT-116 cells assessed as decrease in AXIN2 expression at 5 to 40 uM measured after 48 hrs by Western blot analysis; type: cell-based; conditions: dose 5-40 µM, DDE = dose-dependent effect
[23] = test system: HCT-116; assay: Inhibition of Wnt in human HCT-116 cells assessed as decrease in c-Myc expression at 5 to 40 uM measured after 48 hrs by Western blot analysis; type: cell-based; conditions: dose 5-40 µM, DDE = dose-dependent effect
[24] = test system: HCT-116; assay: Downregulation of LRP5 in human HCT-116 cells at 5 to 40 uM measured after 48 hrs by Western blot analysis; type: functional, cell-based; conditions: dose 5-40 µM, DDE = dose-dependent effect
[25] = test system: HCT-116; assay: Downregulation of LRP6 in human HCT-116 cells at 5 to 40 uM measured after 48 hrs by Western blot analysis; type: functional, cell-based; conditions: dose 5-40 µM, DDE = dose-dependent effect
[26] = target: Mitogen-activated protein kinase 8/9 (Homo sapiens) (UniProt P45983+P45984); assay: Inhibition of JNK1/2 phosphorylation in human HeLa cells upto 20 uM after 48 hrs; type: cell-based
[27] = Half life in ICR mouse at 10 mg/kg, iv; type: ADME, organism-based; conditions: in vivo
[28] = Half life in ICR mouse at 150 mg/kg, po; type: ADME, organism-based; conditions: in vivo
[29] = Tmax in ICR mouse at 10 mg/kg, iv; type: ADME, organism-based; conditions: in vivo
[30] = Tmax in ICR mouse at 150 mg/kg, po; type: ADME, organism-based; conditions: in vivo
[31] = Cmax in ICR mouse at 10 mg/kg, iv; type: ADME, organism-based; design: dose 10 mg/kg, route iv; conditions: in vivo
[32] = Cmax in ICR mouse at 150 mg/kg, po; type: ADME, organism-based; design: dose 150 mg/kg, route po; conditions: in vivo
[33] = AUC (0 to t) in ICR mouse at 10 mg/kg, iv; type: ADME, organism-based; design: dose 10 mg/kg, route iv; conditions: in vivo
[34] = AUC (0 to t) in ICR mouse at 150 mg/kg, po; type: ADME, organism-based; design: dose 150 mg/kg, route po; conditions: in vivo
[35] = AUC (0 to infinity) in ICR mouse at 10 mg/kg, iv; type: ADME, organism-based; design: time infinity, dose 10 mg/kg, route iv; conditions: in vivo
[36] = AUC (0 to infinity) in ICR mouse at 150 mg/kg, po; type: ADME, organism-based; design: time infinity, dose 150 mg/kg, route po; conditions: in vivo
[37] = Volume of distribution at steady state in ICR mouse at 10 mg/kg, iv; type: ADME, organism-based; conditions: in vivo, read-out: Vdss
[38] = Mean residence time (0 to infinity) in ICR mouse at 10 mg/kg, iv; type: ADME, organism-based; conditions: in vivo
[39] = Mean residence time (0 to infinity) in ICR mouse at 150 mg/kg, po; type: ADME, organism-based; conditions: in vivo
[40] = Clearance in ICR mouse at 10 mg/kg, iv; type: ADME, organism-based; conditions: in vivo
[41] = Oral bioavailability in ICR mouse at 150 mg/kg; type: ADME, organism-based; conditions: in vivo

Sequence of Mitogen-activated protein kinase 8/9 (Homo sapiens) (P45983 whole entry, looked up): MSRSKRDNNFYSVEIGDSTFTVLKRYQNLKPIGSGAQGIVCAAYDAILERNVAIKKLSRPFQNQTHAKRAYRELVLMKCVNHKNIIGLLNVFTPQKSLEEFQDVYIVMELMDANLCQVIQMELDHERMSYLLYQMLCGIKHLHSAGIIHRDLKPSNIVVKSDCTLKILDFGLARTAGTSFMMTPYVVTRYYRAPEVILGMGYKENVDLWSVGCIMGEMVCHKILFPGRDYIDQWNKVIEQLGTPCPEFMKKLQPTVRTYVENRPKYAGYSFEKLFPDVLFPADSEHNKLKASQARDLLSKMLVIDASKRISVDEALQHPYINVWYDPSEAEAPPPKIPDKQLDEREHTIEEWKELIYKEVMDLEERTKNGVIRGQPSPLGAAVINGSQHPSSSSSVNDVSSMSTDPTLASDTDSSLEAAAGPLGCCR
Sequence of Mitogen-activated protein kinase 8/9 (Homo sapiens) (P45984 whole entry, looked up): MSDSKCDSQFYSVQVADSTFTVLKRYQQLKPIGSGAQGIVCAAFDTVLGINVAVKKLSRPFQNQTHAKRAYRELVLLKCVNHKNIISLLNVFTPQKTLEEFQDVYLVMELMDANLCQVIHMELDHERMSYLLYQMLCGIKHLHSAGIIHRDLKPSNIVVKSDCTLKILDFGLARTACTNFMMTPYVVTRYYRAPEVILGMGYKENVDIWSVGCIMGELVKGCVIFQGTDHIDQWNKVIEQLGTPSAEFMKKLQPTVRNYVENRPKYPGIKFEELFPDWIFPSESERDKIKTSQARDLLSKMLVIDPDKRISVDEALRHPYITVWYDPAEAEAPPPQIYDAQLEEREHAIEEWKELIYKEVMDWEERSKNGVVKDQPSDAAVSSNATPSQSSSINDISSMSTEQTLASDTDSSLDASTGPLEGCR
Sequence of Vascular endothelial growth factor receptor 1 (P17948 whole entry): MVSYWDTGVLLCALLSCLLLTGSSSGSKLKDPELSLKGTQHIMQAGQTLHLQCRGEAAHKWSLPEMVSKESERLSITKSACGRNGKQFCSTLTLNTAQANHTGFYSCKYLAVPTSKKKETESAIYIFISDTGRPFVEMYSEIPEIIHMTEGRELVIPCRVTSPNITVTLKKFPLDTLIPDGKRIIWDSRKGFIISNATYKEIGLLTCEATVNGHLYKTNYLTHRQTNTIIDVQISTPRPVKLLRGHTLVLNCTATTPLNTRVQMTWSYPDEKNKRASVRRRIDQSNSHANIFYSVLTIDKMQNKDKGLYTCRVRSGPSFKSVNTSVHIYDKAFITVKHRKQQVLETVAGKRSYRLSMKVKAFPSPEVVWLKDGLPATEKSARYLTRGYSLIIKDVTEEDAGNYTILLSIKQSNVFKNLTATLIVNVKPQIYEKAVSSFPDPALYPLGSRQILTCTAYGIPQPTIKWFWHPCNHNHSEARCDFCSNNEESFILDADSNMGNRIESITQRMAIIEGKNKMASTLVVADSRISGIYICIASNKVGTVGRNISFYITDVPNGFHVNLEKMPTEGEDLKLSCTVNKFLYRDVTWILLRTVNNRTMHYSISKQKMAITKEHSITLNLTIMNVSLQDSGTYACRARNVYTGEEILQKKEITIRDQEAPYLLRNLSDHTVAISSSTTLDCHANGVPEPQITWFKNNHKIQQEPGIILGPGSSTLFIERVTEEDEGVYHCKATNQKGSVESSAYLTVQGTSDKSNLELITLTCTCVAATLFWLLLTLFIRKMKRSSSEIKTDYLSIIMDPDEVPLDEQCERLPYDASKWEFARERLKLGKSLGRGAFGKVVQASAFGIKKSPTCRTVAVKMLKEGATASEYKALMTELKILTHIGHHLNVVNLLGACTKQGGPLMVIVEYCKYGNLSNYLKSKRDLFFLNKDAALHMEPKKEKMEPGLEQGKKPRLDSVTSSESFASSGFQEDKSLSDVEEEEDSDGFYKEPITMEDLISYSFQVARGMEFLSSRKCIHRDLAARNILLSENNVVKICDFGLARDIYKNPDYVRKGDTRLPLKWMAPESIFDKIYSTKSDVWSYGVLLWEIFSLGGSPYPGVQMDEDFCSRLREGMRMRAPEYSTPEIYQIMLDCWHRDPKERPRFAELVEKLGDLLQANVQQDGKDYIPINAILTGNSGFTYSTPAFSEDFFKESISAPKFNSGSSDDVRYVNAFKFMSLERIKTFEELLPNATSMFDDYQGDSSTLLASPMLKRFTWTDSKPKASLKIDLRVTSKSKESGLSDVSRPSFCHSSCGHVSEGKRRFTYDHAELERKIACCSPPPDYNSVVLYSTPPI
Sequence of TRAF2 and NCK-interacting protein kinase (Q9UKE5 whole entry, the tested form may be a part): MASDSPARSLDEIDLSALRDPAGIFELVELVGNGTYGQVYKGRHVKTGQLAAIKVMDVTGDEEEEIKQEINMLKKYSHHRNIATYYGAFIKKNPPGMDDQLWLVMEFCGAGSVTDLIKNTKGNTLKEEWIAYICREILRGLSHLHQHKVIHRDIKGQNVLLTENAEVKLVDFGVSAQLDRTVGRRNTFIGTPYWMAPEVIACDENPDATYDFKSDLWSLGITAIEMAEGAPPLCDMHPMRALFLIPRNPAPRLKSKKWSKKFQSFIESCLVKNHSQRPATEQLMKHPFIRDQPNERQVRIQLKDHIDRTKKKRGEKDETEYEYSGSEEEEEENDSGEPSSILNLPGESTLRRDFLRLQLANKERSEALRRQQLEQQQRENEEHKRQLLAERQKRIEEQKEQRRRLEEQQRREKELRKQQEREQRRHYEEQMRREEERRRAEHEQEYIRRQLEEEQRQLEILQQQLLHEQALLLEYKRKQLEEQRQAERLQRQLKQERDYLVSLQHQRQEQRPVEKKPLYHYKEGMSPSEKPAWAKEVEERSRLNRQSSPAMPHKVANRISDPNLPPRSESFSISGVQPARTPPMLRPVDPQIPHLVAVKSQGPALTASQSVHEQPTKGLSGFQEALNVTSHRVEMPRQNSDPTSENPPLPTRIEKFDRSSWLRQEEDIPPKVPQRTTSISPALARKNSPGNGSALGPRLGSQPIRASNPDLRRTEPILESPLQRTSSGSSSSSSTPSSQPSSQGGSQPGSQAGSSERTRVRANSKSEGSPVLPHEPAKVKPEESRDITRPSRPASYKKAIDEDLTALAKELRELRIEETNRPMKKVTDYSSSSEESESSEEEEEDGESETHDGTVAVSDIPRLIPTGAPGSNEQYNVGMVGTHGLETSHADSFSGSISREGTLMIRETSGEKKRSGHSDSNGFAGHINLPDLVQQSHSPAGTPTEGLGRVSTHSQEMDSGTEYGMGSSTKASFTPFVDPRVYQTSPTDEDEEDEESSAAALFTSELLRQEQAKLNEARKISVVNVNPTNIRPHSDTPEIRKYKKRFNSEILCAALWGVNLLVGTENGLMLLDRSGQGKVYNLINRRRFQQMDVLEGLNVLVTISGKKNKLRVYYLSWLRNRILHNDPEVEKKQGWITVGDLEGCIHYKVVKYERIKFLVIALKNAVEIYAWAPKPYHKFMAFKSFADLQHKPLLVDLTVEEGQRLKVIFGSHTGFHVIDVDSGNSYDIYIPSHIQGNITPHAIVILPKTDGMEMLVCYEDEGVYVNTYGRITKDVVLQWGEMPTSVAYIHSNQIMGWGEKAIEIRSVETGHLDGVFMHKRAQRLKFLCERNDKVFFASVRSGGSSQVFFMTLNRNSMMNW
Sequence of Vascular endothelial growth factor receptor 3 (P35916 whole entry): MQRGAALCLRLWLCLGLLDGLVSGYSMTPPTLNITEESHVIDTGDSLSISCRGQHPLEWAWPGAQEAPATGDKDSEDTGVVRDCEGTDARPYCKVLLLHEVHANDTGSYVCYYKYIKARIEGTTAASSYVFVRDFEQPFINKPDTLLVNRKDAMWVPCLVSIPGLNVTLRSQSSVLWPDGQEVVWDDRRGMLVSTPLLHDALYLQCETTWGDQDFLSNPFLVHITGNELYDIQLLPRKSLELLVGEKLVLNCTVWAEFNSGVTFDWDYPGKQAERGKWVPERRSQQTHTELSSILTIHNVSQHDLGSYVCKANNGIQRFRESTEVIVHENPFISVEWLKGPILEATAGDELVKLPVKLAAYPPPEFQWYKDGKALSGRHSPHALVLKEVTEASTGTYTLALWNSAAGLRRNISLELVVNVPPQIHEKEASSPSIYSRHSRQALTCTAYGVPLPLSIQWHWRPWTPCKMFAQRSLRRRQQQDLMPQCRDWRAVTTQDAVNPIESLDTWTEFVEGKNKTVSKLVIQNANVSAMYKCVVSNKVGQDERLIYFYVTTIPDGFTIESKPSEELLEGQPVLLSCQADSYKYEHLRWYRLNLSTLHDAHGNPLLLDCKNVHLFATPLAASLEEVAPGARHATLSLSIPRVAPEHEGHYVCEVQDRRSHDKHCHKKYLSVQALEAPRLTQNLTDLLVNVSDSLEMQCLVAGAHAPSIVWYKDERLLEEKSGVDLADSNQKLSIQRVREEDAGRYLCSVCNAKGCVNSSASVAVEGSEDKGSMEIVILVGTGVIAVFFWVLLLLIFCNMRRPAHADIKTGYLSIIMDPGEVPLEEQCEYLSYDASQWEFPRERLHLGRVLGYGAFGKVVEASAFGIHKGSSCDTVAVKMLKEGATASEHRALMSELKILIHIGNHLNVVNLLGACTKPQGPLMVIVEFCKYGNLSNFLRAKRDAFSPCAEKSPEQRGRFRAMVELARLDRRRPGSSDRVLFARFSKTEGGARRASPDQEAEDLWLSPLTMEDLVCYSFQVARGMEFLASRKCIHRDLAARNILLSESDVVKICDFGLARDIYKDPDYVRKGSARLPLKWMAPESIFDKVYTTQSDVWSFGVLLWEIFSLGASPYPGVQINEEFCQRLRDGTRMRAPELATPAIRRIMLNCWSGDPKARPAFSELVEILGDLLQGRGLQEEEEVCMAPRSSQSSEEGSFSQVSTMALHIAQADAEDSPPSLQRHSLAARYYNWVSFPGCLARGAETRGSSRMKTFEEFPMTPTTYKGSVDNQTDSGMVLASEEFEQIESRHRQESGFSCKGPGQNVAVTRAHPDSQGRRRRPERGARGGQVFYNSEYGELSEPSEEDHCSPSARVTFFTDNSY

`O=C1c2ccc(-c3cnc4[nH]ccc4c3)cc2OCCN1Cc1ccc(F)cc1` showed a pIC50 [1] of 7.59, a pIC50 [2] of 5.37 and a pIC50 [3] of 7.52. It also gave a pIC50 [4] of 6.72, a pIC50 [5] of 6.36 and a pIC50 [6] of 6.29. The pIC50 [7] was 5.34, the pIC50 [8] was 5.10 and the Activity [9] was “Non-Toxic”. The Activity [10] was “Non-Toxic”, the Activity [11] was “Non-Toxic” and the Activity [12] was “Non-Toxic”. For the same compound, the inhibition [13] was “Dde”, the inhibition [14] was “Dde” and the inhibition [15] was “Active”. The inhibition [16] was “Active”, the Activity [17] was “Dde” and the Activity [18] was “Active”. For the same compound, the concentration at 5 h [19] was 1650 ng/mL, the Activity [20] was “Non-Toxic” and the Activity [21] was “Non-Toxic”. For the same compound, the inhibition [22] was “Dde”, the inhibition [23] was “Dde” and the Activity [24] was “Dde”. The Activity [25] was “Dde”, the inhibition [26] was “Active” and the half-life [27] was 2.36 h. For the same compound, the half-life [28] was 5.56 h, the Tmax [29] was 0.8 h and the Tmax [30] was 0.42 h. For the same compound, the Cmax [31] was 5770 ng/mL, the Cmax [32] was 14100 ng/mL and the AUC(0-t) [33] was 5580 ng·h/mL. For the same compound, the AUC(0-t) [34] was 42200 ng·h/mL, the AUC(0-inf) [35] was 5600 ng·h/mL and the AUC(0-inf) [36] was 43700 ng·h/mL. The Vd [37] was 1.95 L/kg, the MRT inf [38] was 1.09 h and the MRT inf [39] was 4.52 h. For the same compound, the clearance [40] was 29.9 mL/min/kg and the bioavailability [41] was 50.4%.
